Results: US20220211704A1, “INHIBITORS OF HUMAN IMMUNODEFICIENCY VIRUS REPLICATION” (VIIV HEALTHCARE UK (No. 5) LIMITED, priority 2019, published 2022)

Columns and labels:
recombinant NL4-3 virus = assay: HIV cell culture assay (Renilla luciferase reporter virus in MT-2 cells); assay type: cell-based; conditions: Human immunodeficiency virus 1, NL43, MT2
Protocol: HIV cell culture assay—MT-2 cells, 293T cells and the proviral DNA clone of NL4-3 virus were obtained from the NIH AIDS Research and Reference Reagent Program. MT-2 cells were propagated in RPMI 1640 media supplemented with 10% heat inactivated fetal bovine serum (FBS), […]. The 293T cells were propagated in DMEM media supplemented with 10% heat inactivated FBS, […]. A recombinant NL4-3 proviral clone, in which a section of the nef gene was replaced with the Renilla luciferase gene, was used to make the reference virus used in these studies. The recombinant virus was prepared through transfection of the recombinant NL4-3 proviral clone into 293T cells using Transit-293 Transfection Reagent from Mirus Bio LLC (Madison, Wis.). Supernatent was harvested after 2-3 days and the amount of virus present was titered in MT-2 cells using luciferase enzyme activity as a marker by measuring luciferase enzyme activity. Luciferase was quantitated using the EnduRen Live Cell Substrate from Promega (Madison, Wis.). Antiviral activities of compounds toward the recombinant virus were quantified by measuring luciferase activity in MT-2 cells infected for 4-5 days with the recombinant virus in the presence of serial dilutions of the compound. […]

[1] = Compound cytotoxicity, XTT-based colorimetric assay; assay type: cell-based; conditions: human; uninfected MT2 cells, day 4, XTT
Protocol: Compound cytotoxicity and the corresponding CC50 values were determined using the same protocol as described in the antiviral assay except that uninfected cells were used. Cytotoxicity was assessed on day 4 in uninfected MT2 cells by using an XTT (2,3-bis[2-Methoxy-4-nitro-5-sulfophenyl]-2H-tetrazolium-5-carboxyanilide inner salt)-based colorimetric assay (Sigma-Aldrich, St Louis, Mo.).

SMILES | EC50 (recombinant NL4-3 virus) [nM] | CC50 at 4 day [1] [nM]
CC(C)(C#Cc1ccc2c(=O)n(-c3ccc(Cl)c4c(NS(=O)(=O)C5CC5)nn(CC(F)F)c34)c([C@H](Cc3cc(F)cc(F)c3)NC(=O)Cn3nc(C(F)F)c4c3C(F)(F)C3CC43)nc2c1)S(C)(=O)=O (stereo in doubt) [Example 2, N—((S)-1-(3-(4-chloro-3-(cyclopropanesulfonamido)-1-(2,2-difluoroethyl)-1H-indazol-7-yl)-7-(3-methyl-3-(methylsulfonyl)but-1-yn-1-yl)-4-oxo-3,4-dihydroquinazolin-2-yl)-2-(3,5-difluorophenyl)ethyl)-2-((3bS,4aR)-3-(difluoromethyl)-5,5-difluoro-3b,4,4a,5-tetrahydro-1H-cyclopropa[3,4]cyclopenta[1,2-c]pyrazol-1-yl)acetamide] | 0.047 | > 500
Cn1nc(NS(C)(=O)=O)c2c(Cl)ccc(-n3c([C@H](Cc4cc(F)cc(F)c4)NC(=O)Cn4nc(C(F)F)c5c4C(F)(F)C4CC54)nc4cc(C#CC(C)(C)S(C)(=O)=O)ccc4c3=O)c21 (stereo in doubt) [Example 1, N—((S)-1-(3-(4-chloro-1-methyl-3-(methylsulfonamido)-1H-indazol-7-yl)-7-(3-methyl-3-(methylsulfonyl)but-1-yn-1-yl)-4-oxo-3,4-dihydroquinazolin-2-yl)-2-(3,5-difluorophenyl)ethyl)-2-((3bS,4aR)-3-(difluoromethyl)-5,5-difluoro-3b,4,4a,5-tetrahydro-1H-cyclopropa[3,4]cyclopenta[1,2-c]pyrazol-1-yl)acetamide] | 0.035 | > 500
